Results reported in patent publication US8101761B2, “(E)-N-{3-[1-(8-fluoro-11H-10-OXA-1-AZA-dibenzo [A,D] cyclohepten-5ylidene)-propyl]-phenyl}-methanesulfonamide as glucocorticoid receptor modulator for the treatment of rheumatoid arthritis” (Eli Lilly and Company, priority 2008, dated 2012).

Legend:
[1] = target: T1, human progesterone receptor (PR) (Homo sapiens, UniProt P06401); assay: Nuclear hormone receptor functional modulation assay (GRE-luciferase reporter, HEK293), PR; assay type: cell-based; conditions: agonist mode, mean of n=4 or 5
T1 construct: expressed in transfected cells; host or cells: HEK293, transient transfection, CMV promoter plasmid
T1 sequence (P06401 1-933): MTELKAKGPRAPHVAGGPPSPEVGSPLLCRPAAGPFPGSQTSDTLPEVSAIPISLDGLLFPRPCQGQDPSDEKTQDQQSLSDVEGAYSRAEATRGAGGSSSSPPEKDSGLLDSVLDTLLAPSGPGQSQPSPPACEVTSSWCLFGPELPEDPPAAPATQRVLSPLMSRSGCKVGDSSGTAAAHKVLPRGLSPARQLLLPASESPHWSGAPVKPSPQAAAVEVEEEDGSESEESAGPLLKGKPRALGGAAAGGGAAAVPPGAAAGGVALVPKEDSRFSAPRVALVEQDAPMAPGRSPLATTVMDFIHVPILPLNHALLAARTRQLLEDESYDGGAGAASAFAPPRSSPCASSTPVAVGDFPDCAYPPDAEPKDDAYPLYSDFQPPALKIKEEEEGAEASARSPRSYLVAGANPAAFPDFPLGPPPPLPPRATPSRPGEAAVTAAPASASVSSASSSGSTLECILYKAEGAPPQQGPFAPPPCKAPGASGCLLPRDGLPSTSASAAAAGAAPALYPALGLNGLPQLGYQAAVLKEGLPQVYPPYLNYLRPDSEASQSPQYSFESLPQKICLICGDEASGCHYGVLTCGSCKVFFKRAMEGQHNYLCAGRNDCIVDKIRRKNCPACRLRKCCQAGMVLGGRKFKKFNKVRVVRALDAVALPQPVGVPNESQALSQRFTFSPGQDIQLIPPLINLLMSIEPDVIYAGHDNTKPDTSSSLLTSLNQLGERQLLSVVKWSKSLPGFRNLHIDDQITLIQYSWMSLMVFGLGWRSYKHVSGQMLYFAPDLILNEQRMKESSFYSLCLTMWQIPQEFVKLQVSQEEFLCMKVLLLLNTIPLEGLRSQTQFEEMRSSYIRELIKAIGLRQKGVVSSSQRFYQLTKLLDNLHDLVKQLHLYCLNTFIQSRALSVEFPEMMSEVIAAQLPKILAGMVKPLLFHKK
Description: (§1) The solvents, reagents, and ligands employed in the functional assay are readily available from commercial sources, or can be prepared by one of ordinary skill in the art.
(§2) Human embryonic kidney HEK293 cells are transfected with steroid hormone receptor and reporter gene plasmids using Fugene™ transfection reagent. Briefly, the reporter plasmid containing two copies of probasin ARE and TK(thymidine kinase) promoter upstream of the luciferase reporter cDNA, is transfected into HEK293 cells with a plasmid constitutively expressing human androgen receptor (AR) using viral CMV(cytomegalovirus) promoter. The reporter plasmid containing two copies of GRE and TK promoter upstream of the luciferase reporter cDNA is transfected with a plasmid constitutively expressing either human glucocorticoid receptor (GR), human mineralocorticoid receptor (MR), or human progesterone receptor (PR) using viral CMV promoter. […] After 24-hours incubation with test compounds, cells are lysed and luciferase activity is determined using standard techniques.
(§3) Data are fitted to a four parameter-fit logistic curve fit to determine EC50 values. […] IC50 values may be determined similarly using antagonist mode assay data. Percent inhibitions may also be determined relative to the response in the presence of agonist alone, as described above.

[2] = target: T2, human androgen receptor (AR) (Homo sapiens, UniProt P10275); assay: Nuclear hormone receptor functional modulation assay (probasin ARE-luciferase reporter, HEK293), AR; assay type: cell-based; conditions: agonist mode, mean of n=4 or 5
T2 construct: expressed in transfected cells; host or cells: HEK293, transient transfection, CMV promoter plasmid
T2 sequence (P10275 1-920): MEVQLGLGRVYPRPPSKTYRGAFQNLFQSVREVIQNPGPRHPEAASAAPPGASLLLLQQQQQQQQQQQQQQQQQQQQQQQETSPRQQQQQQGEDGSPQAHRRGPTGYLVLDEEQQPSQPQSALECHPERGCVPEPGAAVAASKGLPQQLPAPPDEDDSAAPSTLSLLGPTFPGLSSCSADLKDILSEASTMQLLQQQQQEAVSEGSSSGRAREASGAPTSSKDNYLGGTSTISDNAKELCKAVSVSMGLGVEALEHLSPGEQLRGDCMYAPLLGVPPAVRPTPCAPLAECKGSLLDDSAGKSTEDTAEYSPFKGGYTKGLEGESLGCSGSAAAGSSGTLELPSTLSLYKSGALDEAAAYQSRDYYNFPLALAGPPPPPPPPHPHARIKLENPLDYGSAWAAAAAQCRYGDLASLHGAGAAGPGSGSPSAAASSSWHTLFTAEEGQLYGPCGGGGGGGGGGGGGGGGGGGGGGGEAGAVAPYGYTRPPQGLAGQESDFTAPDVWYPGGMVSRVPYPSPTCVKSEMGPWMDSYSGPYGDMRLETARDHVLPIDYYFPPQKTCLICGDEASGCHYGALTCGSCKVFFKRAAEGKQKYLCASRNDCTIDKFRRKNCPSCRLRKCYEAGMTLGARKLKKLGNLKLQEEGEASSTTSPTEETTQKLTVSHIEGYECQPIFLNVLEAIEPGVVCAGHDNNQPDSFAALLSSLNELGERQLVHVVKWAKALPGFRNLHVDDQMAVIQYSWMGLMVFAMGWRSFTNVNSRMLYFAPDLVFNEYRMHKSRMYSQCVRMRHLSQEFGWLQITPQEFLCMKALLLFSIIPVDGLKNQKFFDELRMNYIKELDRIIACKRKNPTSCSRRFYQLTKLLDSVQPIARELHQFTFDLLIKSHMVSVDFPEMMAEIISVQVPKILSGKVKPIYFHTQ
Description: as §1, §2, §3

With `CC/C(=C1\c2ccc(F)cc2OCc2ncccc21)c1cccc(NS(C)(=O)=O)c1` [Compound (I), (E)-N-{3-[1-(8-Fluoro-11H-10-oxa-1-aza-dibenzo[a,d]cyclohepten-5-ylidene)-propyl]-phenyl}-methanesulfonamide] the “efficacy in activating transcription, PR” value ([1]; relative to 30 nM promegestone) was “about 54%”, the EC50 ([1]; read-out: EC50 in activating transcription, PR) was over 10 µM and the “efficacy in activating transcription, AR” value ([2]; relative to 100 nM methyltrienolone) was “about 4.4%”. For the same molecule, the EC50 ([2]; read-out: EC50 in activating transcription, AR) was over 10 µM.
